Earlier results, collected in patent publication US7393545B2, “Lipstatin derivative—soluble fiber tablets” (priority 1999, dated 2008).

How the values were obtained:
pancreatic lipase = molecular target: T1, pancreatic lipase (Homo sapiens, UniProt P16233)
T1 sequence (P16233 17-465): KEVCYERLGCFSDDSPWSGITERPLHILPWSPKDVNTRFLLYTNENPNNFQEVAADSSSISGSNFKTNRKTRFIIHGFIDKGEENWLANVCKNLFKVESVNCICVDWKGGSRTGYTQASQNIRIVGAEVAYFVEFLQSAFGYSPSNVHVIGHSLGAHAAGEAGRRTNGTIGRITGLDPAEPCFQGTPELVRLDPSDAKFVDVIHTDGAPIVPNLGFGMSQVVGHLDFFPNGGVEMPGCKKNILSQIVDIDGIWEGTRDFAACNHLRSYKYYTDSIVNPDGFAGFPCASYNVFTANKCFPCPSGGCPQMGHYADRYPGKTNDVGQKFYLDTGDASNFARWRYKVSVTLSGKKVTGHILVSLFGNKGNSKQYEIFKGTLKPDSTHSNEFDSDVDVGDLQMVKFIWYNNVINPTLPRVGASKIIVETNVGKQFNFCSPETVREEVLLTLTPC

[1] = diet-induced obese rats, 27 mg/kg/day
[2] = in vivo
[3] = first year of a 2 year study, 228 patients, 3× daily, mildly hypocaloric diet
[4] = placebo-controlled clinical studies, over 5000 obese patients

Compound: CCCCCCCCCCC[C@@H](C[C@@H]1OC(=O)[C@H]1CCCCCC)OC(=O)[C@H](CC(C)C)NC=O [Orlistat, tetrahydrolipostatin]
- inhibition of pancreatic lipase (pancreatic lipase): potent and selective inhibitor
- decrease in carcass fat [1]: 54 g
- decrease in liver weight [1]: 13%
- increase in large intestine weight [1]: 38%
- increase in small intestine weight [1]: 27%
- loss of body weight [1]: 65 g
- retroperitoneal (RP) pad weight [1]: decreases
- fat absorption ([1]; decreased from 93-94%): 17-19%
- fat contained in food whose absorption is prevented [2]: about one third
- more weight lost than the placebo controlled group [3]: 65%
- share of patients having lost >10% of their bodyweight [3]: ⅓
- patients who lost 10% or more body weight compared to placebo and diet alone (first year of a two year study, moderately reduced calorie diet): 3 times
- adverse side-effects [4]: no major adverse side-effects
- weight loss [4]: significant weight loss
